In PMC7041945, “Misfolded proteins bind and activate death receptor 5 to trigger apoptosis during unresolved endoplasmic reticulum stress” (eLife, 2020):

What was measured:
Format in all cases: cell-based, Homo sapiens
[1] = tested on: GADD34 mRNA in HCT116 cells; assay: qPCR of GADD34 transcript; conditions: HCT116, 100 nM for 24 hours, norm to GAPDH
[2] = tested on: DR5 / ERGIC53 / giantin in HCT116 cells; assay: Immunofluorescence co-localization (Pearson's correlation per cell)
Procedure: HCT116 were seeded at 25000 cells per well in an 8-well glass-bottom μSlide (Ibidi 80827) pre-coated with Collagen IV (Sigma-Aldrich C6745, 0.03 mg/ml in PBS incubated for 30 min at RT, and then rinsed off with PBS x 3) in growth media 18 hr prior to transfection (see above for protocol). 24 hr post-transfection, the cells were fixed using 4% paraformaldehyde (PFA, Electron Microscopy Sciences) or methanol, depending on the antibody combination used for immunostaining (see table below). Samples were protected from light after fixation to preserve GFP fluorescence.
For fixation with 4% PFA, 32% PFA was added directly to the well in growth media for a 1:8 dilution and incubated for 10–15 min at RT. Cells were then permeabilized with PHEM buffer (60 mM PIPES, 25 mM HEPES, 10 mM EGTA, 2 mM MgCl2-hexahydrate, pH 6.9) containing 0.1% Triton-X100 for 10 min at RT for three washes.
For fixation with methanol, media was removed and cells were washed with cold PBS. Then methanol (pre-cooled at −20°C) was added to the well and incubated at −20°C for 3–4 min. The methanol was promptly aspirated and replaced with PHEM buffer (without Triton X-100), followed by two more 10 min washes with PHEM at RT.
To block against non-specific antibody interactions, cells were rinsed in PHEM (without 0.1% Triton X-100) and then incubated with PHEM containing 2% normal goat serum (Jackson Immunoresearch Laboratories, 005-000-121) for 1 hr at RT. Primary antibodies were incubated in blocking solution overnight at 4°C at the dilution noted in the table above. Cells were then washed with PHEM buffer for 10 min at RT x three and incubated with secondary antibodies, anti-mouse-AlexaFluor546 (Invitrogen A11030) and anti-rabbit-AlexaFluor633 (Invitrogen A21071), diluted 1:1000 in PHEM with 2% normal goat serum. (Secondary antibody solutions were centrifuged at 15000xg for 20 mins at 4°C to remove aggregates prior to incubating with cell samples.) After a 1 hr incubation at RT, cells were washed with PHEM buffer once, then incubated with PHEM buffer containing nuclear stain (DAPI, Molecular Probes, Eugene, OR, D-1306, 5 μg/mL), and finally rinsed with PHEM buffer twice before imaging.
Samples were imaged on a spinning disk confocal with Yokogawa CSUX A1 scan head, Andor iXon EMCCD camera, and 40x Plan Apo air Objective NA 0.95 or 100x ApoTIRF objective NA 1.49 (Nikon).
From the 405 nm channel, cell nuclei were identified as primary objects using maximum correlation thresholding (MCT) and shape to distinguish clumped objects. Secondary objects were outlined using propagation from the nuclei (DAPI) after applying MCT from the 488 nm, 561 nm, and 633 nm channels. Tertiary objects for each cell was identified as the mask of each nucleus subtracted from the mask of its corresponding secondary object in each channel, yielding masks for intracellular GFP-tagged protein from the 488 nm channel, for intracellular DR5 from the 561 nm channel, and for the organelle marker in the 633 nm channel. For overlap between DR5 and MPZ/RHO-GFP, Pearson’s correlation coefficients were calculated within the MPZ/RHO mask for each cell to filter out untransfected cells. For overlap between DR5/MPZ and organelle markers, Pearson’s correlation coefficients were calculated within tertiary objects for the organelle marker in GFP+ cells. Statistical analyses for all data sets were performed using GraphPad Prism 6.0.

[3] = tested on: caspase 8 in HCT116 GFP-Trap immunoprecipitates; assay: Caspase 8 activity (caspase glo 8) of GFP immunoprecipitates (beads); conditions: for Mean ± SEM (IP): GFPTrap beads, relative to GFP; for 95% confidence interval of difference (IP) / Difference between means (IP): vs. GFP
Procedure: 15 cm dishes were seeded with 4 million HCT116 cells and allowed to recover for 18 hr prior to transfection. Samples were then transfected for 24 hr with the GFP-tagged ER trafficked protein, cytosolic GFP, or empty vector. To harvest apoptotic and living cells for each sample, all media and washes were collected. Cells were scraped in 2 ml of cold PBS and combined with the media and washes. Samples were centrifuged to pellet cells, washed with 1 ml cold PBS, and flash frozen in liquid N2 prior to lysis.
The cell pellets were resuspended in 750 μl of 30 mM HEPES pH 7.2, 150 mM NaCl, 1% Triton X-100 with 1x Roche protease inhibitor cocktail (if used subsequently for caspase glo 8 assay) or with 5x Roche protease inhibitor cocktail (if used for immunoblotting). The cells were lysed by mechanical shearing through a 25G needle for 13–15 plunges followed by incubation on ice for 30 min. The lysate was centrifuged at 2000xg for 5 min to remove debris and then incubated with 30 μl of GFP-Trap magnetic agarose beads (Chromotek gtma-20) for 4 hr at 4°C. The beads were then washed with 750 μl of lysis buffer for 10 min at 4°C for three rounds.
For measuring caspase activity, a fifth of the beads was resuspended in 40 μl of 30 mM HEPES pH 7.2, 150 mM NaCl, 1% Triton X-100. 10 μl of the resuspended mixture was incubated with 10 ul of the caspase glo 8 luminogenic substrate (Promega #PRG8200) for 45 min at RT before measuring luminescence.

[4] = tested on: XBP1 mRNA in HCT116 cells; assay: RT-PCR for Xbp1 mRNA splicing; conditions: HCT116, 24 hr
Procedure: Cells were grown in 6-well plates and harvested with 0.5 ml of TRIzol reagent (Life Technologies) per manufacturer's protocol to extract RNA. […] The reverse transcription product was diluted to 200 μl with 10 mM Tris-HCl pH 8.2 and used at 1:100 dilution for subsequent RT-PCR reactions. 2 μl of cDNA was added to 0.2 μM of forward and reverse primers ([…]; Hs_XBP1_Rev: [NT]), 0.2 mM of each dNTP, 0.5 units of Taq DNA polymerase (Thermo Scientific). The reaction was set at an annealing temperature of 60.5°C with an extension time of 30 s for 26 cycles.

[5] = HCT116, 24 hr post-transfection, Mean ± SEM

Compound	avg. fold induction, GADD34 [1]	Pearson's correlation per cell of GFP-tagged peptide with DR5 [2, 5]	Pearson's correlation per cell of GFP-tagged peptide with ERGIC [2, 5]	Pearson's correlation per cell between DR5 and ERGIC ([2]; HCT116 expressing GFP-tagged peptide, 24 hr, Mean ± SEM)	Mean ± SEM (IP) ([3]; n=2)	fold change relative to GFP (GFPTrap beads) ([3]; Rep 1)	fold change relative to GFP (GFPTrap beads) ([3]; Rep 2)	fold change relative to GFP (GFPTrap beads) ([3]; Rep 3)	GFPTrap beads RLUs ([3]; replicate 1)	GFPTrap beads RLUs ([3]; replicate 2)	GFPTrap beads RLUs ([3]; replicate 3)	95% confidence interval of difference (IP) [3]	Difference between means (IP) [3]	XBP1 mRNA splicing [4]	caspase 8 activity of immunoprecipitates ([3]; GFP pulldown)	Mean ± SEM (IP) ([3]; n=3)	average fold change relative to GFP (GFPTrap beads) ([3]; average of replicates)	overlap (mean Pearson's correlation) with DR5 signal ([2]; versus 90° rotated images, 24 hr)
C/C=C(/C)C(=O)O[C@H]1C(C)=C2[C@H]([C@@H]1OC(=O)CCCCCCC)[C@@](C)(OC(C)=O)C[C@H](OC(=O)CCC)[C@@]1(O)[C@H]2OC(=O)[C@@]1(C)O [thapsigargin, reference compound]	11.3183																	
FTWRYQPEGGRDAISIFHYA [MPZ-ecto peptide-eGFP, expressed construct: MPZ ectodomain replaced by the MPZ-ecto peptide, GFP-tagged]		0.23 ± 0.04	0.18 ± 0.04	0.34 ± 0.03														
INS-GFP: GFP-tagged proinsulin expressed from plasmid					1.500 ± 0.1400, n=2	1.64 fold change	0.68 fold change	1.36 fold change	115.391 RLUs	47.845 RLUs	95.69 RLUs	0.1175 to 0.8825	0.5000 ± 0.1202	induced XBP1 mRNA splicing				
RHO-GFP: GFP-tagged rhodopsin expressed from plasmid						4.68 fold change	4.56 fold change	5.28 fold change	329.286 RLUs	320.842 RLUs	371.502 RLUs	3.209 to 4.472	3.840 ± 0.2275	induced XBP1 mRNA splicing	enriched for DR5 protein and caspase 8 activity more robustly than INS-GFP	4.840 ± 0.2227, n=3	4.84 fold change	statistically significant overlap with DR5 signal
